# “And” between values parts separate entries of the source, which are not always exact repeats. Equal values may be shown once. Toxic doses and inconclusive results are not listed.
# Tested on: L1210 leukemia ip in BDF1 mice, survival T/C
# Assay: NCI In Vivo Anticancer Drug Screen. Data for tumor model L1210 Leukemia (intraperitoneal) in B6D2F1 (BDF1) mice
# Conditions: endpoint: mean survival time, higher = longer survival
# How it was run: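 Value reflects the ratio of survival in compound-treated mice to survival in vehicle-treated controls, with both groups carrying the same transplanted tumor.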
# [1] = dose: 100.0 mg/kg/injection, schedule: Q04DX003 (ip), vehicle: Klucel (hydroxypropylcellulose) (HPC)
# [2] = dose: 200.0 mg/kg/injection, schedule: Q04DX003 (ip), vehicle: Klucel (hydroxypropylcellulose) (HPC)
# [3] = dose: 100.0 mg/kg/injection, schedule: Q01DX001 (ip), vehicle: Klucel (hydroxypropylcellulose) (HPC)
# [4] = dose: 200.0 mg/kg/injection, schedule: Q01DX001 (ip), vehicle: Klucel (hydroxypropylcellulose) (HPC)
# [5] = dose: 400.0 mg/kg/injection, schedule: Q01DX001 (ip), vehicle: Klucel (hydroxypropylcellulose) (HPC)
# [6] = dose: 100.0 mg/kg/injection, schedule: Q01DX009 (ip), vehicle: Klucel (hydroxypropylcellulose) (HPC)
# [7] = dose: 200.0 mg/kg/injection, schedule: Q01DX009 (ip), vehicle: Klucel (hydroxypropylcellulose) (HPC)
smiles,measurement,setting,value
CC1CCCC(NC(=O)N(CCCl)N=O)C1 (centres undefined),T/C,"dose: 8.0 mg/kg/injection, schedule: Q01DX001 (ip), vehicle: other",109 % of control
same,T/C,"dose: 27.0 mg/kg/injection, schedule: Q01DX001 (ip), vehicle: other",307 % of control
same,T/C,"dose: 31.0 mg/kg/injection, schedule: Q01DX001 (ip), vehicle: other",170 % of control
same,T/C,"dose: 35.0 mg/kg/injection, schedule: Q01DX001 (ip), vehicle: other",190 % of control
same,T/C,"dose: 42.0 mg/kg/injection, schedule: Q01DX001 (ip), vehicle: other",348 % of control
same,T/C,"dose: 62.0 mg/kg/injection, schedule: Q01DX001 (ip), vehicle: other",275 % of control and 361 % of control
same,T/C,"dose: 71.0 mg/kg/injection, schedule: Q01DX001 (ip), vehicle: other",301 % of control
same,T/C,"dose: 93.0 mg/kg/injection, schedule: Q01DX001 (ip), vehicle: other",307 % of control
same,T/C,"dose: 125.0 mg/kg/injection, schedule: Q01DX001 (ip), vehicle: other",86 % of control
same,T/C,"dose: 286.0 mg/kg/injection, schedule: Q01DX001 (ip), vehicle: other",88 % of control
C=C(C)CCCC(C)C/C=N/NC(=O)CNC(=O)C=[N+]=[N-] (centres undefined) (tested in a mixture with another compound),T/C,"dose: 50.0 mg/kg/injection, schedule: Q01DX001 (ip), vehicle: water",100 % of control
same,T/C,"dose: 100.0 mg/kg/injection, schedule: Q01DX001 (ip), vehicle: water",93 % of control
same,T/C,"dose: 200.0 mg/kg/injection, schedule: Q01DX001 (ip), vehicle: water",91 % of control
same,T/C,"dose: 400.0 mg/kg/injection, schedule: Q01DX001 (ip), vehicle: water",100 % of control
NC(CCn1cnc2c(=O)[nH]cnc21)C(=O)O (centres undefined),T/C,[1],101 % of control
same,T/C,[2],102 % of control
same,T/C,"dose: 400.0 mg/kg/injection, schedule: Q04DX003 (ip), vehicle: Klucel (hydroxypropylcellulose) (HPC)",96 % of control
CC1(C)OC2C(N)OC(CO)C2O1 (centres undefined),T/C,"dose: 100.0 mg/kg/injection, schedule: Q04DX003 (ip), vehicle: saline",95 % of control
same,T/C,"dose: 200.0 mg/kg/injection, schedule: Q04DX003 (ip), vehicle: saline",110 % of control
same,T/C,"dose: 400.0 mg/kg/injection, schedule: Q04DX003 (ip), vehicle: saline",104 % of control
Cn1c(=O)cc(/C=C/c2ccc(-c3ccccc3)cc2)c2ccccc21,T/C,"dose: 100.0 mg/kg/injection, schedule: Q01DX001 (ip), vehicle: saline",103 % of control
same,T/C,"dose: 200.0 mg/kg/injection, schedule: Q01DX001 (ip), vehicle: saline",93 % of control
same,T/C,"dose: 400.0 mg/kg/injection, schedule: Q01DX001 (ip), vehicle: saline",93 % of control
O=C(Nc1cc(C(F)(F)F)cc(C(F)(F)F)c1)Nc1c(Oc2ccc(Cl)cc2Cl)ccc(Cl)c1S(=O)(=O)O,T/C,"dose: 100.0 mg/kg/injection, schedule: Q04DX003 (ip), vehicle: saline sonified",100 % of control
same,T/C,"dose: 200.0 mg/kg/injection, schedule: Q04DX003 (ip), vehicle: saline sonified",100 % of control
COC(=O)/C=C(\C)Nc1ccc(NC(C)=O)cc1,T/C,"dose: 25.0 mg/kg/injection, schedule: Q01DX009 (ip), vehicle: acetone",101 % of control
same,T/C,"dose: 50.0 mg/kg/injection, schedule: Q01DX009 (ip), vehicle: acetone",101 % of control
same,T/C,"dose: 100.0 mg/kg/injection, schedule: Q01DX009 (ip), vehicle: acetone",94 % of control
same,T/C,"dose: 100.0 mg/kg/injection, schedule: Q04DX003 (ip), vehicle: acetone",94 % of control
same,T/C,"dose: 200.0 mg/kg/injection, schedule: Q04DX003 (ip), vehicle: acetone",96 % of control
N#C/C(=N\N=Nc1ccccc1)c1cccc2ccccc12,T/C,"dose: 100.0 mg/kg/injection, schedule: Q01DX009 (ip), vehicle: gum acacia",94 % of control
same,T/C,"dose: 200.0 mg/kg/injection, schedule: Q01DX009 (ip), vehicle: gum acacia",91 % of control
N#Cc1cccc(NC(=O)COc2cccc(Cl)c2)c1,T/C,[3],94 % of control
same,T/C,[4],87 % of control
same,T/C,[5],90 % of control
CCOC(=O)C(CC(=O)O)C(c1ccccc1)c1ccccc1 (centres undefined),T/C,[3],99 % of control
same,T/C,[6],105 % of control and 106 % of control
same,T/C,"dose: 100.0 mg/kg/injection, schedule: Q04DX002 (ip), vehicle: Klucel (hydroxypropylcellulose) (HPC)",98 % of control and 103 % of control
same,T/C,[4],94 % of control
same,T/C,[7],103 % of control and 105 % of control
same,T/C,"dose: 200.0 mg/kg/injection, schedule: Q04DX002 (ip), vehicle: Klucel (hydroxypropylcellulose) (HPC)",98 % of control and 100 % of control
same,T/C,[5],99 % of control
same,T/C,"dose: 400.0 mg/kg/injection, schedule: Q01DX009 (ip), vehicle: Klucel (hydroxypropylcellulose) (HPC)",98 % of control and 118 % of control
same,T/C,"dose: 400.0 mg/kg/injection, schedule: Q04DX002 (ip), vehicle: Klucel (hydroxypropylcellulose) (HPC)",98 % of control and 103 % of control
CCc1ccc(NC(=O)NC(C)C)cc1,T/C,"dose: 50.0 mg/kg/injection, schedule: Q01DX009 (ip), vehicle: Klucel (hydroxypropylcellulose) (HPC)",113 % of control
same,T/C,[6],91 % of control
same,T/C,[1],103 % of control
same,T/C,[7],103 % of control
same,T/C,[2],92 % of control

# Source: PubChem BioAssay AID248 (DTP/NCI, 2004)
